From ChEMBL document CHEMBL5252587, “Structure-activity relationship study of antitrypanosomal analogues of gibbilimbol B using multivariate analysis and computation-aided drug design” (Bioorg Med Chem Lett, 2023)

Key:
Fibroblast = assay: Cytotoxicity against mouse NCTC Fibroblast cells assessed as inhibition of cell growth; type: functional
[1] = Selectivity index, ratio of CC50 for cytotoxicity against mouse NCTC Fibroblast cells assessed as inhibition of cell growth to EC50 for antitrypanosomal activity against Trypanosoma cruzi trypomastigotes assessed as parasite growth inhibition; type: toxicity, cell-based; settings: read-out: Ratio CC50/EC50
Trypanosoma cruzi = assay: Antitrypanosomal activity against Trypanosoma cruzi trypomastigotes assessed as parasite growth inhibition; type: functional, organism-based
[2] = Trypanosoma cruzi, read-out: EC50

| SMILES | EC50 (Trypanosoma cruzi; [2]) | EC50 (Trypanosoma cruzi) | CC50 (Fibroblast) | selectivity ratio [1] |
| --- | --- | --- | --- | --- |
| CCC/C=C/CCCNC(=O)c1ccccc1 | 71.3 µM |  | > 200 µM | > 2.8 |
| CCCCC(CC)COC(=O)c1ccc(C(C)(C)C)cc1 (centres undefined) |  | Not Active | > 200 µM |  |
| CCCCC(CC)CNC(=O)c1ccc(C(C)(C)C)cc1 (centres undefined) |  | Not Active | > 200 µM |  |
| CCC/C=C/CCCNC(=O)c1ccc(F)cc1 | 71.4 µM |  | > 200 µM | > 2.8 |
| CCCCC(CC)CNC(=O)c1ccc(F)cc1 (centres undefined) | 36.6 µM |  | 157 µM | 4.3 |
| CCC/C=C/CCCOC(=O)c1ccccc1 | 77.4 µM |  | > 200 µM | > 2.6 |
| CCC/C=C/CCCNC(=O)c1ccc(C)cc1 | 37.7 µM |  | > 200 µM | > 5.3 |
| CCCCC(CC)COC(=O)c1ccc(F)cc1 (centres undefined) | 42.4 µM |  | > 200 µM | > 4.7 |
| CCCCC/C=C/CCCOC(=O)c1ccc(O)cc1 | 75.3 µM |  | > 200 µM | > 2.7 |
| CCC/C=C/CCCOC(=O)c1ccc(C(C)(C)C)cc1 |  | Not Active | > 200 µM |  |
| O=C(Cn1ccnc1[N+](=O)[O-])NCc1ccccc1 [BENZNIDAZOLE] |  |  | > 200 µM | > 16 |

More lines, in order of falling EC50 (Trypanosoma cruzi; [2]), values ahead:

| EC50 (Trypanosoma cruzi; [2]) | EC50 (Trypanosoma cruzi) | SMILES | CC50 (Fibroblast) | selectivity ratio [1] |
| --- | --- | --- | --- | --- |
| 28.7 µM |  | CCC/C=C/CCCNC(=O)c1ccc(Cl)cc1 | > 200 µM | > 7 |
| 25.9 µM |  | CCC/C=C/CCCNC(=O)c1ccc(OC)cc1 | > 200 µM | > 7.7 |
| 24.4 µM |  | CCC/C=C/CCCNC(=O)c1ccc([N+](=O)[O-])cc1 | 158 µM | 6.5 |
| 22 µM |  | CCCCC(CC)CNC(=O)c1ccc([N+](=O)[O-])cc1 (centres undefined) | > 200 µM | > 9.1 |
| 21.3 µM |  | CCCCC(CC)CNC(=O)c1ccc(C)cc1 (centres undefined) | > 200 µM | > 9.4 |
| 20.8 µM |  | CCC/C=C/CCCOC(=O)c1ccc(F)cc1 | > 200 µM | > 9.6 |
| 20.7 µM |  | CCCCC(CC)CNC(=O)c1ccc(Cl)cc1 (centres undefined) | > 200 µM | > 9.7 |
| 19.8 µM |  | CCC/C=C/CCCOC(=O)c1ccc(Cl)cc1 | > 200 µM | > 10.1 |
| 19.7 µM |  | CCCCC(CC)COC(=O)c1ccc(C)cc1 (centres undefined) | > 200 µM | > 10.2 |
| 15.6 µM |  | CCCCC(CC)COC(=O)c1ccc(Cl)cc1 (centres undefined) | > 200 µM | > 12.8 |
| 15.6 µM |  | CCC/C=C/CCCOC(=O)c1ccc(OC)cc1 | > 200 µM | > 12.8 |
| 11.7 µM |  | CCC/C=C/CCCOC(=O)c1ccc(C)cc1 | > 200 µM | > 17.1 |
| 11.5 µM |  | CCCCC(CC)COC(=O)c1ccc([N+](=O)[O-])cc1 (centres undefined) | > 200 µM | > 17.4 |
| 7.7 µM |  | CCC/C=C/CCCNC(=O)c1ccc(C(C)(C)C)cc1 | > 200 µM | > 26 |
| 5.6 µM |  | CCC/C=C/CCCOC(=O)c1ccc([N+](=O)[O-])cc1 | > 200 µM | > 35.1 |
